Reference: patent US10334851B2, “Herbicidal isoxazolo[5,4-B]pyridines” (BASF SE, priority 2010, dated 2019)

What was measured:
Type in all cases: in vivo
Polygonum convolvulus = test: Greenhouse post-emergence treatment of Polygonum convolvulus (wild buckwheat); settings: application rate 1.0 kg/ha, scale 0 to 100
From the text: (§1) The seeds of the test plants were sown separately for each species. For the post-emergence treatment, the test plants were first grown to a height of 3 to 15 cm, depending on the plant habit, and only then treated with the active ingredients which had been suspended or emulsified in water. For this purpose, the test plants were either sown directly and grown in the same containers, or they were first grown separately as seedlings and transplanted into the test containers a few days prior to treatment. Depending on the species, the plants were kept at 10-25° C. or 20-35° C. The test period extended over 2 to 4 weeks. During this time, the plants were tended, and their response to the individual treatments was evaluated. Evaluation was carried out using a scale from 0 to 100. 100 means no emergence of the plants, or complete destruction of at least the aerial moieties, and 0 means no damage, or normal course of growth. A good herbicidal activity is given at values of at least 80 and a very good herbicidal activity is given at values of at least 90. The plants used in the greenhouse experiments belonged to the following species: [table]

[1] = system: Amaranthus retroflexus L.; test: Greenhouse post-emergence treatment of Amaranthus retroflexus L. (pigweed); settings: application rate 1.0 kg/ha, scale 0 to 100
From the text: as §1

Setaria faberi = test: Greenhouse post-emergence treatment of Setaria faberi (giant foxtail); settings: for damage: scale 0 to 100; for pest or weed control at 3000 g/ha / pest or weed control at 2000 g/ha: scale 0 to 100, read-out: damage
From the text: as §1

Abutilon theophrasti = test: Greenhouse post-emergence treatment of Abutilon theophrasti (velvetleaf); settings: scale 0 (no damage) to 100 (complete destruction); for pest or weed control at 3000 g/ha / pest or weed control at 2000 g/ha: Abutilon theophrasti
From the text: as §1

Chenopodium album = test: Greenhouse post-emergence treatment of Chenopodium album (fat-hen); settings: application rate 1.0 kg/ha; for damage: scale 0 to 100; for pest or weed control at 1000 g/ha: scale 0 to 100, read-out: damage
From the text: as §1

Matricaria inodora = test: Greenhouse post-emergence treatment of Matricaria inodora (horse daisy); settings: application rate 2.0 kg/ha, scale 0 (no damage) to 100 (complete destruction)
From the text: as §1

Avena fatua = test: Greenhouse post-emergence treatment of Avena fatua (spring-wild oat); settings: scale 0 (no damage) to 100 (complete destruction)
From the text: as §1

Alopecurus myosuroides = test: Greenhouse post-emergence treatment of Alopecurus myosuroides (blackgrass); settings: application rate 1.0 kg/ha, scale 0 (no damage) to 100 (complete destruction)
From the text: as §1

Agrostis stolonifera L. = test: Greenhouse post-emergence treatment of Agrostis stolonifera L. (white bent); settings: application rate 2.0 kg/ha, scale 0 (no damage) to 100 (complete destruction)
From the text: as §1

Lolium multiflorum = test: Greenhouse post-emergence treatment of Lolium multiflorum (italian ryegrass); settings: application rate 1.0 kg/ha, scale 0 (no damage) to 100 (complete destruction)
From the text: as §1

Compound: O=C(O)c1cc(C2(F)CC2)nc2onc(-c3ccc(C(F)(F)F)cc3)c12 [I.7.59]
- damage (Polygonum convolvulus): 100%
- damage [1]: 100%

Compound: Cc1noc2nc(-c3ccc(OC(F)F)cc3)cc(C(=O)O)c12 [I.5.13]
- damage (Setaria faberi; application rate 3.0 kg/ha): 95%

Compound: O=C(O)c1cc(C2CC2)nc2onc(C(F)(F)F)c12 [I.2.10]
- pest or weed control at 3000 g/ha (Abutilon theophrasti; application rate 3.0 kg/ha): 90%
- pest or weed control at 3000 g/ha (Setaria faberi; application rate 3.0 kg/ha): 85%

Compound: CCCCc1noc2nc(C3(F)CC3)cc(C(=O)O)c12 [I.7.66]
- damage (Polygonum convolvulus): 100%
- damage (Chenopodium album): 100%

Compound: CC(C)c1noc2nc(C3(F)CC3)cc(C(=O)O)c12 [I.7.67]
- damage (Polygonum convolvulus): 100%
- pest or weed control at 1000 g/ha (Chenopodium album): 100%

Compound: O=C(O)c1cc(C2CC2)nc2onc(-c3ccccc3Br)c12 [I.2.59]
- damage (Polygonum convolvulus): 90%
- damage (Chenopodium album): 95%

Compound: COc1ccc(-c2noc3nc(C4CC4)cc(C(=O)O)c23)cc1 [I.2.8]
- damage (Abutilon theophrasti; application rate 3.0 kg/ha): 100%
- damage (Setaria faberi; application rate 3.0 kg/ha): 80%

Compound: O=C(O)c1cc(C2CC2)nc2onc(-c3ccco3)c12 [I.2.4]
- damage (Matricaria inodora): 98%

Compound: COc1ccccc1-c1cc(C(=O)O)c2c(C(C)C)noc2n1 [I.7.7]
- damage (Setaria faberi; application rate 3.0 kg/ha): 85%

Compound: CCCN(CC1CC1)C(=O)COC(=O)c1cc(C2CC2)nc2onc(C)c12 [I.1.35]
- damage (Avena fatua; application rate 3.0 kg/ha): 85%
- damage (Abutilon theophrasti; application rate 3.0 kg/ha): 90%

Compound: O=C(O)c1cc(C2CC2)nc2onc(C3CCCC3)c12 [I.2.14]
- pest or weed control at 3000 g/ha (Abutilon theophrasti; application rate 3.0 kg/ha): 100%
- pest or weed control at 3000 g/ha (Setaria faberi; application rate 3.0 kg/ha): 90%

Compound: O=C(O)c1cc(C2(F)CC2)nc2onc(C3(F)CC3)c12
- pest or weed control at 3000 g/ha (Setaria faberi; application rate 3.0 kg/ha): 98%

Compound: O=C(O)c1cc(C2CC2)nc2onc(C3CCC3)c12 [I.2.12]
- pest or weed control at 3000 g/ha (Abutilon theophrasti; application rate 3.0 kg/ha): 100%
- pest or weed control at 3000 g/ha (Setaria faberi; application rate 3.0 kg/ha): 90%

Compound: Cc1noc2nc(C3CC3)cc(C(=O)O)c12 [I.2.1]
- pest or weed control at 2000 g/ha (Abutilon theophrasti; application rate 2.0 kg/ha): 95%
- pest or weed control at 2000 g/ha (Setaria faberi; application rate 2.0 kg/ha): 100%

Compound: Cc1noc2nc(C3CC3)cc(C(=O)OCC(F)(F)F)c12 [I.1.67]
- damage (Avena fatua; application rate 3.0 kg/ha): 95%
- damage (Abutilon theophrasti; application rate 3.0 kg/ha): 100%

Compound: O=C(O)c1cc(C2CC2)nc2onc(-c3ccccc3OC(F)F)c12 [I.2.64]
- damage (Polygonum convolvulus): 80%
- damage [1]: 100%

Compound: O=C(O)c1cc(C2CC2)nc2onc(C3CC3)c12 [I.2.7]
- pest or weed control at 3000 g/ha (Abutilon theophrasti; application rate 3.0 kg/ha): 100%
- pest or weed control at 3000 g/ha (Setaria faberi; application rate 3.0 kg/ha): 100%

Compound: Cc1noc2nc(C3CC3)cc(C(=O)OCC(=O)OC(C)(C)C)c12 [I.1.43]
- damage (Alopecurus myosuroides): 80%
- damage (Avena fatua; application rate 1.0 kg/ha): 90%

Compound: CC(C)(C)Cc1noc2nc(C3(F)CC3)cc(C(=O)O)c12 [I.7.69]
- damage (Polygonum convolvulus): 100%
- damage [1]: 100%

Compound: CCc1noc2nc(C3CC3)cc(C(=O)O)c12 [I.2.25]
- pest or weed control at 3000 g/ha (Setaria faberi; application rate 3.0 kg/ha): 95%

Compound: CCOC(=O)c1cc(C2CC2)nc2onc(C)c12 [I.1.63]
- damage (Avena fatua; application rate 3.0 kg/ha): 80%

Compound: CCc1ccc(C(=O)COC(=O)c2cc(C3CC3)nc3onc(C)c23)s1 [I.1.49]
- damage (Agrostis stolonifera L.): 85%
- damage (Matricaria inodora): 98%

Compound: O=C(O)c1cc(C2CC2)nc2onc(-c3ccc(-c4ccccc4)cc3)c12 [I.2.19]
- damage (Abutilon theophrasti; application rate 3.0 kg/ha): 100%
- damage (Setaria faberi; application rate 3.0 kg/ha): 85%

Compound: O=C(O)c1cc(C2CC2)nc2onc(-c3ccncc3)c12 [I.2.16]
- pest or weed control at 3000 g/ha (Abutilon theophrasti; application rate 3.0 kg/ha): 85%
- pest or weed control at 3000 g/ha (Setaria faberi; application rate 3.0 kg/ha): 100%

Compound: O=C(O)c1cc(C2CC2)nc2onc(-c3ccc([N+](=O)[O-])cc3)c12 [I.2.65]
- damage (Polygonum convolvulus): 100%
- damage [1]: 100%

Compound: O=C(O)c1cc(C2CC2)nc2onc(-c3ccccc3)c12 [I.2.5]
- damage (Abutilon theophrasti; application rate 3.0 kg/ha): 100%
- damage (Setaria faberi; application rate 3.0 kg/ha): 80%

Compound: O=C(O)c1cc(C2CC2)nc2onc(CCc3ccccc3)c12 [I.2.11]
- damage (Abutilon theophrasti; application rate 3.0 kg/ha): 100%
- damage (Setaria faberi; application rate 3.0 kg/ha): 100%

Compound: COc1ccc(-c2nc(COC(=O)c3cc(C4CC4)nc4onc(C)c34)co2)cc1 [I.1.31]
- damage (Agrostis stolonifera L.): 85%
- damage (Matricaria inodora): 95%

Compound: Cc1ccsc1-c1noc2nc(C3CC3)cc(C(=O)O)c12 [I.2.69]
- damage (Polygonum convolvulus): 85%
- pest or weed control at 1000 g/ha (Chenopodium album): 95%

Compound: Cc1ccccc1-c1cc(C(=O)O)c2c(C)noc2n1 [I.5.8]
- damage (Setaria faberi; application rate 3.0 kg/ha): 85%

Compound: COC(=O)c1cc(C2CC2)nc2onc(C)c12 [I.1.39]
- damage (Agrostis stolonifera L.): 90%
- damage (Avena fatua; application rate 2.0 kg/ha): 85%

Compound: Cc1noc2nc(C3CC3)cc(C(=O)OCc3nc4ccccc4o3)c12 [I.1.21]
- damage (Chenopodium album): 100%
- damage (Lolium multiflorum): 100%

Compound: O=C(O)c1cc(C2(F)CC2)nc2onc(-c3ccc(Br)cc3)c12 [I.7.60]
- damage (Polygonum convolvulus): 100%
- damage [1]: 100%

Compound: Cc1noc2nc(C3CC3)cc(C(=O)OCC#N)c12 [I.1.6]
- damage (Abutilon theophrasti; application rate 3.0 kg/ha): 100%
- damage (Setaria faberi; application rate 3.0 kg/ha): 95%

Compound: CC(C)(C)Cc1noc2nc(C3CC3)cc(C(=O)O)c12 [I.2.2]
- damage (Abutilon theophrasti; application rate 2.0 kg/ha): 100%
- damage (Setaria faberi; application rate 2.0 kg/ha): 90%

Compound: CCCc1noc2nc(C3CC3)cc(C(=O)O)c12 [I.2.3]
- damage (Abutilon theophrasti; application rate 3.0 kg/ha): 100%
- damage (Setaria faberi; application rate 3.0 kg/ha): 85%

Compound: CC1CC1c1noc2nc(C3CC3)cc(C(=O)O)c12 (stereo not drawn) [I.2.13]
- pest or weed control at 2000 g/ha (Abutilon theophrasti; application rate 2.0 kg/ha): 100%
- pest or weed control at 2000 g/ha (Setaria faberi; application rate 2.0 kg/ha): 95%

Compound: COC(=O)c1cc(C2CC2)nc2onc(C3CC3C)c12 (stereo not drawn) [I.4.3]
- pest or weed control at 3000 g/ha (Setaria faberi; application rate 3.0 kg/ha): 90%

Compound: O=C(O)c1cc(C2CC2)nc2onc(-c3cccnc3)c12 [I.2.15]
- pest or weed control at 3000 g/ha (Abutilon theophrasti; application rate 3.0 kg/ha): 85%
- pest or weed control at 3000 g/ha (Setaria faberi; application rate 3.0 kg/ha): 100%

Compound: CCc1cc(C(=O)O)c2c(C3CC3)noc2n1 [I.7.17]
- pest or weed control at 3000 g/ha (Abutilon theophrasti; application rate 3.0 kg/ha): 100%
- pest or weed control at 3000 g/ha (Setaria faberi; application rate 3.0 kg/ha): 90%

Compound: Cc1noc2nc(C3CC3)cc(C(=O)OCc3nc(-c4cccs4)no3)c12 [I.1.10]
- damage (Agrostis stolonifera L.): 90%
- damage (Matricaria inodora): 85%

Compound: Cc1noc2nc(C3(F)CC3)cc(C(=O)O)c12 [I.7.51]
- pest or weed control at 3000 g/ha (Setaria faberi; application rate 3.0 kg/ha): 90%

Compound: COC(=O)c1cc(C2CC2)nc2onc(-c3cccnc3)c12 [I.4.2]
- pest or weed control at 3000 g/ha (Setaria faberi; application rate 3.0 kg/ha): 85%

Compound: CCOC(=O)C1=C(COC(=O)c2cc(C3CC3)nc3onc(C)c23)NC(=O)NC1 [I.1.2]
- damage (Matricaria inodora): 90%

Compound: CC(C)c1noc2nc(-c3ccc(F)cc3)cc(C(=O)O)c12 [I.7.4]
- damage (Setaria faberi; application rate 3.0 kg/ha): 80%

Compound: O=C(O)c1cc(C2CC2)nc2onc(-c3ccccc3F)c12 [I.2.50]
- damage [1]: 100%
- damage (Chenopodium album): 100%

Compound: Cc1noc2nc(C3CC3)cc(C(=O)OC(C)C(N)=O)c12 (stereo not drawn) [I.1.24]
- damage (Matricaria inodora): 100%

Compound: O=C(O)c1cc(C2CC2)nc2onc(-c3ccc(Br)cc3)c12 [I.2.20]
- damage (Abutilon theophrasti; application rate 3.0 kg/ha): 100%
- damage (Setaria faberi; application rate 3.0 kg/ha): 95%

Compound: CCCc1noc2nc(C3CC3)cc(C(=O)SC)c12 [I.4.59]
- damage [1]: 95%
- damage (Chenopodium album): 100%

Compound: COC(=O)c1cc(C2CC2)nc2onc(-c3cccc(OC)c3)c12 [I.4.19]
- damage (Setaria faberi; application rate 3.0 kg/ha): 100%

Compound: CC(C)c1noc2nc(C3CC3)cc(C(=O)O)c12 [I.2.6]
- pest or weed control at 3000 g/ha (Abutilon theophrasti; application rate 3.0 kg/ha): 100%
- pest or weed control at 3000 g/ha (Setaria faberi; application rate 3.0 kg/ha): 95%

Compound: COc1ccc(-c2noc3nc(C4CC4(F)F)cc(C(=O)O)c23)cc1 (stereo not drawn) [I.7.57]
- damage [1]: 80%
- damage (Chenopodium album): 98%

Compound: COC(=O)c1cc(C2CC2)nc2onc(C(F)(F)F)c12 [I.4.6]
- pest or weed control at 3000 g/ha (Setaria faberi; application rate 3.0 kg/ha): 80%

Compound: CC(C)Cc1noc2nc(C3(F)CC3)cc(C(=O)O)c12 [I.7.68]
- damage [1]: 100%
- damage (Chenopodium album): 100%
